Results on one compound are retold here after patent US9982011B2, “Legumain activated doxorubicin derivative as well as preparation method and application thereof” (priority 2012, dated 2018).

One series deals with BALB/C mice. The series is described as follows: Maximum tolerated dose (MTD) / acute toxicity of a single injection in mice. Particulars: single injection; for Mortality rate (%) / Number of dead animal: 6 female BALB/C mice. From the text:
Test purpose: to investigate the acute toxicity of the subject new drug formulation via MTD assay by intravenous administration to mice.
Test drug: S1 and S2 injections, diluted to the corresponding concentrations with physiological saline when tested.
Animal: the first class BALB/C mice, weighing 19-21 g and all mice being female.
Method and results: 36 female BALB/C mice weighing 19-21 g were randomly divided into 6 groups according to their body weights, with 6 mice in each group. […] Control tests were performed by injecting 0.2 ml physiological saline or doxorubicin hydrochloride. […] Blood samples were taken on the 3, 5 and 14 days for counting the whole blood cells. Animals were anatomized on day 14 to take the heart, liver, kidney, lung, spleen, and pancreas for HE staining.
The MTD for intravenous administration of a test drug is an important reference index for drug toxicity.

Series [1] in a line: Distribution of drug in tumor and heart tissues after intravenous injection. In kind it is in vivo. The conditions noted are these: for Distribution in tumor tissue sections (fluorescence microscope): 12 hours after intravenous injection of 10 μmol/kg, compared with Succinyl-AANL-DOX, FIG. 3; for Accumulation in the heart tissue / Accumulation in the tumor tissue: FIG. 4; for Accumulation in the tumor tissue: compared with doxorubicin and Succinyl-AANL-DOX. An excerpt:
After intravenous injection of EMC-AANL-DOX (SEQ ID NO: 2), EMC-AANL-DOX (SEQ ID NO: 2) could accumulate at the tumor site due to the targeting property of the EMC group, as compared with Succinyl-AANL-DOX (SEQ ID NO: 2) and more EMC-AANL-DOX (SEQ ID NO: 2) were distributed in the tumor tissue. Since the drug itself could produce fluorescence, we detected distribution of Succinyl-AANL-DOX (SEQ ID NO: 2) and EMC-AANL-DOX (SEQ ID NO: 2) in the tumor tissue sections by fluorescence microscope 12 hours after intravenous injection of 10 μmol/kg Succinyl-AANL-DOX (SEQ ID NO: 2) and EMC-AANL-DOX (SEQ ID NO: 2). The nucleus was stained by 4′,6-diamidino-2-phenylindole (DAPI).

In the next series the target is serum albumin (Mus musculus, UniProt P07724). The conditions noted are these: blood taken 10 minutes after intravenous tail injection.

Entries after “also recorded” stand apart in the source; their conditions may differ.

serum albumin, sequence (P07724 25-608): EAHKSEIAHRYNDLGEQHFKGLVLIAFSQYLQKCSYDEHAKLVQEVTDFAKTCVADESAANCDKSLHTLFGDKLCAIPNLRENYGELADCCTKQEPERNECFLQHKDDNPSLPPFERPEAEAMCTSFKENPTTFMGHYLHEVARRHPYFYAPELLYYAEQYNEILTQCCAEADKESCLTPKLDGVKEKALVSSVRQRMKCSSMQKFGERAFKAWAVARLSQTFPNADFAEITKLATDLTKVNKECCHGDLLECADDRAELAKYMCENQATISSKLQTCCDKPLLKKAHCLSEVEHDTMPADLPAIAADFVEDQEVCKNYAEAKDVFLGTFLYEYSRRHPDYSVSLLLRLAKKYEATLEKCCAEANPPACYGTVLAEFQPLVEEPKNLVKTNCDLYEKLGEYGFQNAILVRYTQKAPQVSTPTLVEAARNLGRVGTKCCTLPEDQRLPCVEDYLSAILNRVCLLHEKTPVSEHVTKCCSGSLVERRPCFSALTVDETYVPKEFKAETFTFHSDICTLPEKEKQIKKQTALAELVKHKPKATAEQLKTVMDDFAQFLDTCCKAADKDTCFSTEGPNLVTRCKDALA
Protocol for serum albumin: Bloods were taken after 10 minutes and centrifuged to obtain serum. The proteins in the serum were precipitated by 70% ethanol.

The MTD is the largest dose that counted as tolerated. As to `COc1cccc2c1C(=O)c1c(O)c3c(c(O)c1C2=O)CC(O)(C(=O)CO)CC3OC1CC(NC(=O)C(CC(C)C)NC(=O)C(CC(N)=O)NC(=O)C(C)NC(=O)C(C)NC(=O)CCCCCN2C(=O)C=CC2=O)C(O)C(C)O1` (stereo not shown) [Example S1, EMC-AANL-Doxorubicin], the “Mortality rate (%)” value with BALB/C mice (50 mg/kg) worked out at 0%; in the series on BALB/C mice (100 mg/kg), 0%; in the series with BALB/C mice (150 mg/kg) it was 0%; in the series with BALB/C mice (200 mg/kg) it was 33.3%; in the series on BALB/C mice (300 mg/kg), 100%. The “Number of dead animal” value in the series on BALB/C mice (50 mg/kg, observed 17 days) is 0; with BALB/C mice (100 mg/kg), 0; in the series on BALB/C mice (150 mg/kg), 0; in the series on BALB/C mice (200 mg/kg), 2; with BALB/C mice (300 mg/kg), 5. Moreover, in the series on BALB/C mice (150 mg/kg, mice), the “Abnormal behaviors and death observed” value was “no pilo-erection, hair tousle and lackluster, lethargy, stoop, irritable reaction and death were observed”. For the same compound, in the series on BALB/C mice (mice), the MTD was over 100 µmol/kg. The entries for the “Distribution in tumor tissue sections (fluorescence microscope)” value in series [1] and in series [1] (listed as EMC-AANL-DOX) were “have the effect to accumulate the drug at tumor cell” and “significantly more”, respectively. In addition, the “Accumulation in the heart tissue” value in series [1] is “reduced accumulation in the heart”; in series [1] (listed as EMC-AANL-DOX), “no accumulation in the heart tissue”. Also, the “Accumulation in the tumor tissue” value in series [1] is given as “accumulation of S1 in the tumor site”; in series [1] (listed as EMC-AANL-DOX), “accumulated in a higher concentration in the tumor tissue”. Also, the “Binding to serum albumin / plasma protein in blood” value on serum albumin was “most of S1 could bind to serum albumin and thus precipitated; also recorded: most of S1 bound to the plasma protein”.
